Data as given in patent US20250025454A1 (priority 2021, published 2025).

Legend:
in vitro = conditions: human, EC50, compound toxicity in the context of infection, total cell numbers per well; average±sem of 5 independent experiments
SARS-CoV-2 [1] = conditions: 35 compounds tested
SARS-CoV-2/WA1 = assay type: cell-based; conditions: Severe acute respiratory syndrome coronavirus 2, HeLa-ACE2
SARS-CoV-2 [2] = assay: microbe, parasite or virus in culture; conditions: Severe acute respiratory syndrome coronavirus 2, HeLa-ACE2, 24 h

Structure (SMILES) | EC50 (in vitro) [nM] | activity in the HeLa-ACE2 cell-based SARS-CoV-2 assay (SARS-CoV-2 [1]) | IC50 (SARS-CoV-2/WA1) [nM] | EC50 (SARS-CoV-2 [2]) [nM]
COc1ccc(C[C@H](N)C(=O)N[C@H]2[C@@H](O)[C@H](n3cnc4c(N(C)C)ncnc43)O[C@@H]2CO)cc1 [puromycin] | 547 ± 27 |  |  | 
CNCc1ccc(-c2cc(-c3nc(-c4ccc(S(=O)(=O)C(C)C)cc4)cnc3N)on2)cc1 [berzosertib, reference compound] |  | demonstrated activity | 110 | 114
COc1cc(Cl)cc(C(C)Nc2cc(N3CCNCC3)ccc2S(C)(=O)=O)c1OC.Cl (stereo not shown) [PRX-07034] |  | demonstrated activity |  | 
Cc1c2c(nn1C)CSCc1cc(n(C)n1)CSc1cc(c3ccccc3c1)OCCCc1c(C(=O)O)n(C)c3c-2c(Cl)ccc13 [AZD-5991] |  | demonstrated activity |  | 
Nc1ncnc2c1nc(Cl)n2[C@@H]1O[C@@H]2COP(=O)(O)O[C@H]2[C@H]1O [tocladesine] |  | demonstrated activity |  | 
